Laboratory results published in paper PMC8537068, “Do Lipids Influence Gastrointestinal Processing: A Case Study of Major Soybean Allergen Gly m 4” (Membranes, 2021).

Tests used:
pepsin = target: T1, pepsin (Sus scrofa, UniProt P00791); test: TNS displacement fluorescence; type: binding; conditions: 4 µM protein, 4 µM TNS, 4 µM lipid; 0.05 M HCl pH 2.0, 25 °C
T1 construct: gene PGA; commercial native porcine pepsin (Sigma-Aldrich), mature enzyme without propeptide

Gly m 4 = target: T2, Gly m 4 (Glycine max, UniProt P26987); test: TNS displacement fluorescence; type: binding; conditions: 4 µM protein, 4 µM TNS, 4 µM lipid; 0.01 M phosphate pH 7.4, 25 °C
T2 construct: gene PR-10
T2 sequence (P26987 1-158): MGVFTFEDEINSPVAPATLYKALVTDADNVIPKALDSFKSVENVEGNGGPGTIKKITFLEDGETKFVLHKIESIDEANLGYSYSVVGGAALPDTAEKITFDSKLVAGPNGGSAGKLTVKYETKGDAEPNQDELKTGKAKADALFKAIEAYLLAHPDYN

T1 sequence (P00791 60-385): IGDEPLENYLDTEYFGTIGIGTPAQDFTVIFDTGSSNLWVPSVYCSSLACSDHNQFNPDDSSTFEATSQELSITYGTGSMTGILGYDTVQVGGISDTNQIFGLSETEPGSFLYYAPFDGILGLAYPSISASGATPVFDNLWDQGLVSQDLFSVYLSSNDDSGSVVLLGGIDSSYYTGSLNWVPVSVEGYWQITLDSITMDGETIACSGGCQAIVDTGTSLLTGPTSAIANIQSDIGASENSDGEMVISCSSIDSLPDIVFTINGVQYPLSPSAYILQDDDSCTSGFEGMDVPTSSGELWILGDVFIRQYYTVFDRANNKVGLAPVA

Row | % of control TNS fluorescence (Gly m 4) | Structure (SMILES) | % of control TNS fluorescence (pepsin)
1 | 26% | CCCCCCCCCCCCCCCC(=O)OC[C@@H](O)COP(=O)(O)OCC(O)CO (some centres unmarked) [LPPG, 1-palmitoyl-2-hydroxy-sn-glycero-3-phosphoglycerol] | pepsin bound to the tested FAs and LPPG with an equal efficiency
2 | 12% | CCCCCCCC/C=C\CCCCCCCC(=O)O [OLE, oleic acid] | pepsin bound to the tested FAs and LPPG with an equal efficiency
3 | – | CCCCCCCCCCCCCCCCCC(=O)O [STE, stearic acid] | pepsin bound to the tested FAs and LPPG with an equal efficiency
